Values quoted from earlier work in publication PMC5742115, “Pharmacophore Modeling and in Silico/in Vitro Screening for Human Cytochrome P450 11B1 and Cytochrome P450 11B2 Inhibitors” (Frontiers in Chemistry, 2017).
Like-named read-outs stand apart in the source and are kept apart here.

Key:
CYP11B1 = conditions: reported activity, supplementary Table 1, read-out: CYP11B1 IC50, cited from earlier work
CYP11B2 = conditions: reported activity, supplementary Table 1, read-out: CYP11B2 IC50, cited from earlier work
[1] = ref Pinto-Bazurco Mendieta et al., 2013

For `O=C1CCc2cc(-c3cncc(-c4cc(F)ccc4F)c3)cc3c2N1CC3` [CHEMBL1765223], the IC50 (CYP11B1; ref Lucas et al., 2011) is listed as 183 nM and the IC50 (CYP11B2; ref Lucas et al., 2011) is listed as 3.6 nM.
For `O=C1CCc2cc(C(c3ccc(F)cc3)n3ccnc3)cc3c2N1CC3` (stereo not drawn) [CHEMBL2163644], the IC50 (CYP11B1; ref Yin et al., 2012) is listed as 27 nM and the IC50 (CYP11B2; ref Yin et al., 2012) is listed as 29 nM.
For `Fc1ccccc1-c1ccc(Cn2ccnc2)cn1` [CHEMBL2011244], the IC50 (CYP11B1; ref Hille et al., 2011a) is listed as 72 nM and the IC50 (CYP11B2; ref Hille et al., 2011a) is listed as 1740 nM.
In the case of `O=C1CCc2cc(C(c3ccc(F)cc3)c3cccnc3)cc3c2N1CC3` (stereo not drawn) [CHEMBL2312972], the IC50 (CYP11B1; ref Yin et al., 2013) is given as 78 nM and the IC50 (CYP11B2; ref Yin et al., 2013) is given as 587 nM.
For `N#Cc1ccc(Cn2cncc2-c2ccccc2)cc1` [CHEMBL597578], the IC50 (CYP11B1; ref Roumen et al., 2010) is given as 28 nM and the IC50 (CYP11B2; ref Roumen et al., 2010) is given as 1.7 nM.
For `c1ccc2c(-c3ccc(Cn4ccnc4)cn3)csc2c1` [CHEMBL2011433], the IC50 (CYP11B1; ref Hille et al., 2011a) is given as 40 nM and the IC50 (CYP11B2; ref Hille et al., 2011a) is given as 1160 nM.
For `COc1ccc2c(c1)CC/C2=C/c1cccnc1` [CHEMBL176101], the IC50 (CYP11B1; ref Ulmschneider et al., 2005a) is given as 790 nM and the IC50 (CYP11B2; ref Ulmschneider et al., 2005a) is given as 26 nM.
For `C(=C1\CCc2ccccc21)/c1ccncc1` [CHEMBL179149], the IC50 (CYP11B1; ref Ulmschneider et al., 2005a) is given as 931 nM and the IC50 (CYP11B2; ref Ulmschneider et al., 2005a) is given as 18 nM.
In the case of `C(=C1/CCCc2ccccc21)/c1ccncc1` [CHEMBL360026], the IC50 (CYP11B1; ref Ulmschneider et al., 2005a) is listed as 143 nM and the IC50 (CYP11B2; ref Ulmschneider et al., 2005a) is listed as 15 nM.
In the case of `CC(c1ccc(-c2cccc3ccccc23)nc1)n1ccnc1` (stereo not drawn) [CHEMBL2417627], the IC50 (CYP11B1; ref Emmerich et al., 2013) is given as 60 nM and the IC50 (CYP11B2; ref Emmerich et al., 2013) is given as 273 nM.
For `O=C1CCc2cc(-c3cccnc3)ccc2N1` [CHEMBL62811], the IC50 (CYP11B1; ref Lucas et al., 2008b) is given as 6750 nM and the IC50 (CYP11B2; ref Lucas et al., 2008b) is given as 28 nM.
In the case of `Cc1nnc2n1-c1ccc(-c3cncc4ccccc34)cc1CC2` [CHEMBL2331706], the IC50 (CYP11B1; ref Blass, 2013a) is given as 407 nM and the IC50 (CYP11B2; ref Blass, 2013a) is given as 5 nM.
In the case of `C=C(c1cc2c3c(c1)CCN3C(=O)CC2)n1ccnc1` [CHEMBL2163641], the IC50 (CYP11B1; ref Yin et al., 2012) is listed as 19 nM and the IC50 (CYP11B2; ref Yin et al., 2012) is listed as 100 nM.
For `Cc1cc(C#N)ccc1[C@H]1CCc2cncn21` [CHEMBL3099696], the IC50 (CYP11B1; ref Meredith et al., 2013) is listed as 0.9 nM and the IC50 (CYP11B2; ref Meredith et al., 2013) is listed as 1.5 nM.
In the case of `CCOc1ccc(Cn2ccnc2)c2c(=O)c3ccccc3oc12` [CHEMBL2333330], the IC50 (CYP11B1; ref Gobbi et al., 2013) is listed as 25.4 nM and the IC50 (CYP11B2; ref Gobbi et al., 2013) is listed as 14.8 nM.
For `COc1ccc(Cn2ccnc2)c2c(=O)c3ccccc3oc12` [CHEMBL2333329], the IC50 (CYP11B1; ref Gobbi et al., 2013) is given as 80.1 nM and the IC50 (CYP11B2; ref Gobbi et al., 2013) is given as 41.1 nM.
For `O=C1CCc2cc(C(O)(c3ccccc3)c3ccncc3)cc3c2N1CC3` (stereo not drawn) [CHEMBL2312953], the IC50 (CYP11B1; ref Yin et al., 2013) is given as 745 nM and the IC50 (CYP11B2; ref Yin et al., 2013) is given as 85 nM.
In the case of `COc1ccc2cc(-c3cncc4ccccc34)ccc2c1` [CHEMBL500394], the IC50 (CYP11B1; ref Heim et al., 2008) is given as 67 nM and the IC50 (CYP11B2; ref Heim et al., 2008) is given as 0.6 nM.
In the case of `Fc1cccc2c1CC/C2=C\c1cccnc1` [CHEMBL366490], the IC50 (CYP11B1; ref Ulmschneider et al., 2005a) is given as 774 nM and the IC50 (CYP11B2; ref Ulmschneider et al., 2005a) is given as 21 nM.
For `C=C(c1cccnc1)c1cc2c3c(c1)CCN3C(=O)CC2` [CHEMBL2312966], the IC50 (CYP11B1; ref Yin et al., 2013) is given as 41 nM and the IC50 (CYP11B2; ref Yin et al., 2013) is given as 468 nM.
For `C(=C1/CCc2ccccc21)/c1cccnc1` [CHEMBL364080], the IC50 (CYP11B1; ref Ulmschneider et al., 2005a) is listed as 888 nM and the IC50 (CYP11B2; ref Ulmschneider et al., 2005a) is listed as 11 nM.
In the case of `O=C1CCc2cc(C(c3ccncc3)c3ccc(Cl)cc3)cc3c2N1CC3` (stereo not drawn) [CHEMBL2312961], the IC50 (CYP11B1; ref Yin et al., 2013) is listed as 92 nM and the IC50 (CYP11B2; ref Yin et al., 2013) is listed as 32 nM.
For `N#Cc1ccc(Cn2cncc2Br)cc1` [CHEMBL599223], the IC50 (CYP11B1; ref Roumen et al., 2010) is listed as 73 nM and the IC50 (CYP11B2; ref Roumen et al., 2010) is listed as 23 nM.
For `COC(=O)c1ccc2cc(-c3cccnc3)ccc2c1` [CHEMBL438802], the IC50 (CYP11B1; ref Voets et al., 2005) is given as 10500 nM and the IC50 (CYP11B2; ref Voets et al., 2005) is given as 72 nM.
For `c1cn(Cc2ccc(-c3ccoc3)nc2)cn1` [CHEMBL2011435], the IC50 (CYP11B1; ref Hille et al., 2011a) is given as 76 nM and the IC50 (CYP11B2; ref Hille et al., 2011a) is given as 2830 nM.
For `COC(=O)c1cncc(-c2ccc3cc(OC)ccc3c2)c1` [CHEMBL500146], the IC50 (CYP11B1; ref Heim et al., 2008) is given as 15 nM and the IC50 (CYP11B2; ref Heim et al., 2008) is given as 0.8 nM.
In the case of `CCN1C(=O)CCc2cc(-c3cccnc3)ccc21` [CHEMBL457425], the IC50 (CYP11B1; ref Lucas et al., 2008b) is given as 5180 nM and the IC50 (CYP11B2; ref Lucas et al., 2008b) is given as 22 nM.
In the case of `CCC(c1cc2c3c(c1)CCN3C(=O)CC2)n1ccnc1` (stereo not drawn) [CHEMBL2163637], the IC50 (CYP11B1; ref Yin et al., 2012) is given as 6.5 nM and the IC50 (CYP11B2; ref Yin et al., 2012) is given as 5.8 nM.
In the case of `COc1ccc2cc(-c3cccnc3)ccc2c1Cl` [CHEMBL197576], the IC50 (CYP11B1; ref Voets et al., 2005) is listed as 2520 nM and the IC50 (CYP11B2; ref Voets et al., 2005) is listed as 13 nM.
In the case of `Brc1ccc2c(c1)CC/C2=C/c1ccncc1` [CHEMBL179222], the IC50 (CYP11B1; ref Ulmschneider et al., 2005a) is given as 484 nM and the IC50 (CYP11B2; ref Ulmschneider et al., 2005a) is given as 56 nM.
For `COc1ccc2cc(-c3cnccc3C)ccc2c1` [CHEMBL500664], the IC50 (CYP11B1; ref Heim et al., 2008) is given as 114 nM and the IC50 (CYP11B2; ref Heim et al., 2008) is given as 0.8 nM.
In the case of `O=C1CCc2cc(-c3cncc4ccccc34)cc3c2N1CC3` [CHEMBL1765214], the IC50 (CYP11B1; ref Lucas et al., 2011) is listed as 13 nM and the IC50 (CYP11B2; ref Lucas et al., 2011) is listed as 0.2 nM.
For `C(=C1/CCc2ccccc21)/c1cnc[nH]1` [CHEMBL177468], the IC50 (CYP11B1; ref Ulmschneider et al., 2005b) is given as 29.5 nM and the IC50 (CYP11B2; ref Ulmschneider et al., 2005b) is given as 41 nM.
In the case of `N#CC1=Cc2ccc(-c3cccnc3)cc2CC1` [CHEMBL461884], the IC50 (CYP11B1; ref Lucas et al., 2008b) is given as 290 nM and the IC50 (CYP11B2; ref Lucas et al., 2008b) is given as 1.6 nM.
In the case of `COc1ccc2ccc(-c3cncc(F)c3)c(Cl)c2c1` [CHEMBL2420679], the IC50 (CYP11B1; [1]) is given as 1420 nM and the IC50 (CYP11B2; [1]) is given as 38 nM.
In the case of `CN1C(=O)CCc2cc(-c3cccnc3)ccc21` [CHEMBL446083], the IC50 (CYP11B1; ref Lucas et al., 2008b) is listed as 742 nM and the IC50 (CYP11B2; ref Lucas et al., 2008b) is listed as 2.6 nM.
For `Fc1ccc2c(c1)CC/C2=C\c1ccncc1` [CHEMBL424960], the IC50 (CYP11B1; ref Ulmschneider et al., 2005a) is listed as 1100 nM and the IC50 (CYP11B2; ref Ulmschneider et al., 2005a) is listed as 15 nM.
For `COc1ccc2c(c1)CC(C)C(c1cccnc1)=C2` (stereo not drawn) [CHEMBL502266], the IC50 (CYP11B1; ref Heim et al., 2008) is given as 248 nM and the IC50 (CYP11B2; ref Heim et al., 2008) is given as 3.3 nM.
For `O=c1c2ccccc2oc2c(Cl)ccc(Cn3ccnc3)c12` [CHEMBL2333326], the IC50 (CYP11B1; ref Gobbi et al., 2013) is listed as 0.5 nM and the IC50 (CYP11B2; ref Gobbi et al., 2013) is listed as 3 nM.
In the case of `COC(=O)c1cncn1Cc1ccc(C#N)cc1` [CHEMBL591698], the IC50 (CYP11B1; ref Roumen et al., 2010) is given as 48 nM and the IC50 (CYP11B2; ref Roumen et al., 2010) is given as 7 nM.
For `COc1ccc2cc(-c3cncc(C(C)=O)c3)ccc2c1` [CHEMBL502824], the IC50 (CYP11B1; ref Heim et al., 2008) is given as 255 nM and the IC50 (CYP11B2; ref Heim et al., 2008) is given as 2.1 nM.
For `O=C1CCc2cc(-c3cncc(-c4ccccc4)c3)cc3c2N1CC3` [CHEMBL1765219], the IC50 (CYP11B1; ref Lucas et al., 2011) is listed as 58 nM and the IC50 (CYP11B2; ref Lucas et al., 2011) is listed as 1.3 nM.
